Values quoted from earlier work as cited in PubChem BioAssay AID1259409 (Chemical Carcinogenesis Research Information System (CCRIS), 2018).

System: rodent chemically induced tumor inhibition, incidence and multiplicity
Assay: CCRIS tumor inhibitor studies

Row | Compound | tumour outcome (control, treated, inhibition, significance) (Carcinogen: 4-(METHYLNITROSAMINO)-1-(3-PYRIDYL)-1-BUTANONE [64091-50-5], Dose [Inhibitor]: 80 MMOL/KG IN DIET FOR 17 WK BEGINNING 1 WK PRIOR TO FIRST CARCINOGEN DOSE (STUDY DURATION: 17 WK), Route [Inhibitor]: ORAL, Species: MOUSE, Strain/Sex: A/J/FEMALE, Target Tissue: Type of Lesion: LUNG: ADENOMA, Dose [Carcinogen]: 10 UMOL ONCE 1 WK POST FIRST INHIBITOR DOSE (STUDY DURATION: 17 WK), Promoter: NONE) | tumour outcome (control, treated, inhibition, significance) (Carcinogen: 4-(METHYLNITROSAMINO)-1-(3-PYRIDYL)-1-BUTANONE [64091-50-5], Dose [Inhibitor]: 80 MMOL/KG IN DIET FOR 53 WK BEGINNING 1 WK PRIOR TO FIRST CARCINOGEN DOSE (STUDY DURATION: 53 WK), Route [Inhibitor]: ORAL, Species: MOUSE, Strain/Sex: A/J/FEMALE, Target Tissue: Type of Lesion: LUNG: ADENOMA OR ADENOCARCINOMA, Dose [Carcinogen]: 10 UMOL ONCE 1 WK POST FIRST INHIBITOR DOSE (STUDY DURATION: 53 WK), Promoter: NONE) | tumour outcome (control, treated, inhibition, significance) (Carcinogen: 4-(METHYLNITROSAMINO)-1-(3-PYRIDYL)-1-BUTANONE [64091-50-5], Dose [Inhibitor]: 160 MMOL/KG IN DIET FOR 17 WK BEGINNING 1 WK PRIOR TO FIRST CARCINOGEN DOSE (STUDY DURATION: 17 WK), Route [Inhibitor]: ORAL, Species: MOUSE, Strain/Sex: A/J/FEMALE, Target Tissue: Type of Lesion: LUNG: ADENOMA, Dose [Carcinogen]: 10 UMOL ONCE 1 WK POST FIRST INHIBITOR DOSE (STUDY DURATION: 17 WK), Promoter: NONE) | tumour outcome (control, treated, inhibition, significance) (Carcinogen: 4-(METHYLNITROSAMINO)-1-(3-PYRIDYL)-1-BUTANONE [64091-50-5], Dose [Inhibitor]: 160 MMOL/KG IN DIET FOR 53 WK BEGINNING 1 WK PRIOR TO FIRST CARCINOGEN DOSE (STUDY DURATION: 53 WK), Route [Inhibitor]: ORAL, Species: MOUSE, Strain/Sex: A/J/FEMALE, Target Tissue: Type of Lesion: LUNG: ADENOMA OR ADENOCARCINOMA, Dose [Carcinogen]: 10 UMOL ONCE 1 WK POST FIRST INHIBITOR DOSE (STUDY DURATION: 53 WK), Promoter: NONE) | tumour outcome (control, treated, inhibition, significance) (Carcinogen: 4-(METHYLNITROSAMINO)-1-(3-PYRIDYL)-1-BUTANONE, 64091-91-4, Dose [Inhibitor]: 0, 6528 PPM IN DIET FOR 22 WK BEGINNING 1 WK PRIOR TO CARCINOGEN TREATMENT (STUDY DURATION: 98 WK), Route [Inhibitor]: ORAL, Species: RAT, Strain/Sex: F344/MALE, Target Tissue: Type of Lesion: LUNG: TUMOR, Dose [Carcinogen]: 1.5 MG/KG BW 3/WK FOR 20 WK, Promoter: NONE USED) | tumour outcome (control, treated, inhibition, significance) (Carcinogen: 4-(METHYLNITROSAMINO)-1-(3-PYRIDYL)-1-BUTANONE, 64091-91-4, Dose [Inhibitor]: 0, 6528 PPM IN DIET FOR 22 WK BEGINNING 1 WK PRIOR TO CARCINOGEN TREATMENT (STUDY DURATION: 98 WK), Route [Inhibitor]: ORAL, Species: RAT, Strain/Sex: F344/MALE, Target Tissue: Type of Lesion: NASAL CAVITY: TUMOR, Dose [Carcinogen]: 1.5 MG/KG BW 3/WK FOR 20 WK, Promoter: NONE USED) | tumour outcome (control, treated, inhibition, significance) (Carcinogen: 4-(METHYLNITROSAMINO)-1-(3-PYRIDYL)-1-BUTANONE, 64091-91-4, Dose [Inhibitor]: 0, 13056 PPM IN DIET FOR 22 WK BEGINNING 1 WK PRIOR TO CARCINOGEN DOSE (STUDY DURATION: 98 WK), Route [Inhibitor]: ORAL, Species: RAT, Strain/Sex: F344/MALE, Target Tissue: Type of Lesion: NASAL CAVITY: TUMOR, Dose [Carcinogen]: 1.5 MG/KG BW 3/WK FOR 20 WK, Promoter: NONE USED) | tumour outcome (control, treated, inhibition, significance) (Carcinogen: 4-(METHYLNITROSAMINO)-1-(3-PYRIDYL)-1-BUTANONE, 64091-91-4, Dose [Inhibitor]: 0, 13056 PPM IN DIET FOR 22 WK BEGINNING 1 WK PRIOR TO CARCINOGEN TREATMENT (STUDY DURATION: 98 WK), Route [Inhibitor]: ORAL, Species: RAT, Strain/Sex: F344/MALE, Target Tissue: Type of Lesion: LUNG: TUMOR, Dose [Carcinogen]: 1.5 MG/KG BW 3/WK FOR 20 WK, Promoter: NONE USED) | tumour outcome (control, treated, inhibition, significance) (Carcinogen: 7,12-DIMETHYLBENZ[A]ANTHRACENE, 57-97-6, Dose [Inhibitor]: 0, 4000 PPM IN DIET FOR DURATION OF STUDY BEGINNING 1 WK PRIOR TO CARCINOGEN DOSE (STUDY DURATION: 107 D), Route [Inhibitor]: ORAL, Species: RAT, Strain/Sex: SPRAGUE-DAWLEY/FEMALE, Target Tissue: Type of Lesion: MAMMARY GLAND: ADENOCARCINOMA, Dose [Carcinogen]: 12 MG ONCE, Promoter: NONE USED) | tumour outcome (control, treated, inhibition, significance) (Carcinogen: 7,12-DIMETHYLBENZ[A]ANTHRACENE, 57-97-6, Dose [Inhibitor]: 0, 8000 PPM IN DIET FOR DURATION OF STUDY BEGINNING 1 WK PRIOR TO CARCINOGEN DOSE (STUDY DURATION: 107 D), Route [Inhibitor]: ORAL, Species: RAT, Strain/Sex: SPRAGUE-DAWLEY/FEMALE, Target Tissue: Type of Lesion: MAMMARY GLAND: ADENOCARCINOMA, Dose [Carcinogen]: 12 MG ONCE, Promoter: NONE USED) | tumour outcome (control, treated, inhibition, significance) (Carcinogen: AZOXYMETHANE, 25843-45-2, Dose [Inhibitor]: 0, 600 PPM IN DIET BEGINNING 2 WK PRIOR TO CARCINOGEN TREATMENT AND CONTINUING FOR DURATION OF STUDY (STUDY DURATION: 56, Route [Inhibitor]: ORAL, Species: RAT, Strain/Sex: F344/MALE, Target Tissue: Type of Lesion: COLON: INVASIVE ADENOCARCINOMA, Dose [Carcinogen]: 15 MG/KG 1/WK FOR 2 WK, Promoter: NONE USED) | tumour outcome (control, treated, inhibition, significance) (Carcinogen: AZOXYMETHANE, 25843-45-2, Dose [Inhibitor]: 0, 600 PPM IN DIET BEGINNING 2 WK PRIOR TO CARCINOGEN TREATMENT AND CONTINUING FOR DURATION OF STUDY (STUDY DURATION: 56, Route [Inhibitor]: ORAL, Species: RAT, Strain/Sex: F344/MALE, Target Tissue: Type of Lesion: COLON: NONINVASIVE ADENOCARCINOMA, Dose [Carcinogen]: 15 MG/KG 1/WK FOR 2 WK, Promoter: NONE USED) | tumour outcome (control, treated, inhibition, significance) (Carcinogen: AZOXYMETHANE, 25843-45-2, Dose [Inhibitor]: 0, 1200 PPM IN DIET BEGINNING 2 WK PRIOR TO CARCINOGEN TREATMENT AND CONTINUING FOR DURATION OF STUDY (STUDY DURATION: 5, Route [Inhibitor]: ORAL, Species: RAT, Strain/Sex: F344/MALE, Target Tissue: Type of Lesion: COLON: INVASIVE ADENOCARCINOMA, Dose [Carcinogen]: 15 MG/KG 1/WK FOR 2 WK, Promoter: NONE USED) | tumour outcome (control, treated, inhibition, significance) (Carcinogen: AZOXYMETHANE, 25843-45-2, Dose [Inhibitor]: 0, 1200 PPM IN DIET BEGINNING 2 WK PRIOR TO CARCINOGEN TREATMENT AND CONTINUING FOR DURATION OF STUDY (STUDY DURATION: 5, Route [Inhibitor]: ORAL, Species: RAT, Strain/Sex: F344/MALE, Target Tissue: Type of Lesion: COLON: NONINVASIVE ADENOCARCINOMA, Dose [Carcinogen]: 15 MG/KG 1/WK FOR 2 WK, Promoter: NONE USED) | tumour outcome (control, treated, inhibition, significance) (Carcinogen: DIETHYLNITROSAMINE, 55-18-5, Dose [Inhibitor]: 0, 30 MG/KG BW BY INTRAPERITONEAL INJECTION ON DAYS 13, 14 AND 15 OF AGE THEN 2 G/KG DIET FROM 21 TO 161 DAYS OF AGE (ST, Route [Inhibitor]: INTRAPERITONEAL, ORAL, Species: MOUSE, Strain/Sex: C3H/MALE, Target Tissue: Type of Lesion: LIVER: ADENOMA, Dose [Carcinogen]: 4 MG/KG IN TRICAPRYLIN ONCE ON DAY 15 OF AGE, Promoter: NONE USED) | tumour outcome (control, treated, inhibition, significance) (Carcinogen: 7,12-DIMETHYLBENZ[A]ANTHRACENE, 57-97-6, Dose [Inhibitor]: 0, 12 MG 2/WK FOR 30 WK APPLIED 20 MIN PRIOR TO EACH PROMOTER DOSE (STUDY DURATION: 32 WK), Route [Inhibitor]: DERMAL, Species: MOUSE, Strain/Sex: SENCAR/FEMALE, Target Tissue: Type of Lesion: SKIN: PAPILLOMA, Dose [Carcinogen]: 25 NMOL ONCE, Promoter: M-CHLOROPEROXYBENZOIC ACID, 937-14-4) | tumour outcome (control, treated, inhibition, significance) (Carcinogen: 7,12-DIMETHYLBENZ[A]ANTHRACENE, 57-97-6, Dose [Inhibitor]: 0, 20 UMOL IN 0.4 ML ACETONE 20 MIN PRIOR TO EACH PROMOTER DOSE (STUDY DURATION: 47 WK), Route [Inhibitor]: DERMAL, Species: MOUSE, Strain/Sex: CF-1/FEMALE, Target Tissue: Type of Lesion: SKIN: CARCINOMA, Dose [Carcinogen]: 100 NMOL IN 0.2 ML ACETONE ONCE) | tumour outcome (control, treated, inhibition, significance) (Carcinogen: 7,12-DIMETHYLBENZ[A]ANTHRACENE, 57-97-6, Dose [Inhibitor]: 0, 20 UMOL IN 0.4 ML ACETONE 20 MIN PRIOR TO EACH PROMOTER DOSE (STUDY DURATION: 47 WK), Route [Inhibitor]: DERMAL, Species: MOUSE, Strain/Sex: CF-1/FEMALE, Target Tissue: Type of Lesion: SKIN: PAPILLOMA, Dose [Carcinogen]: 100 NMOL IN 0.2 ML ACETONE ONCE) | tumour outcome (control, treated, inhibition, significance) (Carcinogen: BENZO[A]PYRENE, 50-32-8, Dose [Inhibitor]: 1% AQUEOUS SOLUTION 3/WK FOR A TOTAL OF 80 APPLICATIONS BEGINNING POST CARCINOGEN DOSE (STUDY DURATION: 567-580 D), Route [Inhibitor]: DERMAL, Species: MOUSE, Strain/Sex: CD-1/MALE, FEMALE, Target Tissue: Type of Lesion: SKIN: TUMOR, Dose [Carcinogen]: 0.53-0.6 MG ONCE, Promoter: NONE USED)
1 | CC(=O)N[C@@H](CS)C(=O)O | 100%, 100%, 0%, not significant | 100%, 93%, 7%, not significant | 100%, 100%, 0%, not significant | 100%, 97%, 3%, not significant | 22/33 (67%), 22/36 (61%), 9%, not significant | 28/36 (78%), 22/36 (61%), 22%, not significant | 28/36 (78%), 17/36 (47%), 40%, not significant | 22/33 (67%), 21/36 (58%), 13%, not significant | 92%, 88%, 4%, not significant | 92%, 92%, 0%, not significant | 34%, 22%, 35%, not significant | 53%, 44%, 17%, not significant | 34%, 19%, 44%, not significant | 53%, 42%, 21%, not significant | 100%, 100%, 0%, not significant |  |  |  | 
2 | O=C(O)c1cc(O)c(O)c(O)c1 |  |  |  |  |  |  |  |  |  |  |  |  |  |  |  | 39%, 3%, 92%, not calculated | 67%, 28%, 58%, p<0.005 | 94%, 80%, 15%, not calculated | 15/50 (30%), 15/50 (30%), 0%, not significant
